From ChEMBL document CHEMBL1201862, “PubChem BioAssay data set” (2004)
The source made the active and inactive calls.

Tests used:
[1] = target: T1, Nuclear receptor subfamily 0 group B member 1 (Homo sapiens, UniProt P51843); experiment: Luminescence-based cell-based high throughput dose response assay for inhibitors of the orphan nuclear receptor subfamily 0, group B, member 1 (DAX1; NR0B1). [Related pubchem assays (depositor defined):AID504766, AID504790]; assay type: functional
T1 sequence (P51843 whole entry): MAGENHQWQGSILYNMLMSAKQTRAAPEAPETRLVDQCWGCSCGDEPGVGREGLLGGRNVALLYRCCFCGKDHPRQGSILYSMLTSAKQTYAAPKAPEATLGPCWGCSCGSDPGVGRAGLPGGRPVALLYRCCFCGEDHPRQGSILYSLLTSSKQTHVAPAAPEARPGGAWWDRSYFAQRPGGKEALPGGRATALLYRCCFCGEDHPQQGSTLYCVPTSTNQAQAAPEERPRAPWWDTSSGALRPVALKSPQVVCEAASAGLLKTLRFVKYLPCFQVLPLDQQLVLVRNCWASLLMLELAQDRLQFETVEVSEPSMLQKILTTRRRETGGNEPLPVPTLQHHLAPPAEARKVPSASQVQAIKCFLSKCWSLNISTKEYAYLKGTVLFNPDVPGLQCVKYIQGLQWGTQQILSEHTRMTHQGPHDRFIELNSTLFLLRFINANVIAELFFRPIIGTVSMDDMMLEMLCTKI

HEK293 [2] = experiment: cells; assay type: functional, cell-based; settings: Homo sapiens
Beta-galactosidase = Beta-galactosidase (Escherichia coli, UniProt Q8VNN2); experiment: PubChem AID 485352; assay type: functional
Chain of Beta-galactosidase (Q8VNN2 whole entry): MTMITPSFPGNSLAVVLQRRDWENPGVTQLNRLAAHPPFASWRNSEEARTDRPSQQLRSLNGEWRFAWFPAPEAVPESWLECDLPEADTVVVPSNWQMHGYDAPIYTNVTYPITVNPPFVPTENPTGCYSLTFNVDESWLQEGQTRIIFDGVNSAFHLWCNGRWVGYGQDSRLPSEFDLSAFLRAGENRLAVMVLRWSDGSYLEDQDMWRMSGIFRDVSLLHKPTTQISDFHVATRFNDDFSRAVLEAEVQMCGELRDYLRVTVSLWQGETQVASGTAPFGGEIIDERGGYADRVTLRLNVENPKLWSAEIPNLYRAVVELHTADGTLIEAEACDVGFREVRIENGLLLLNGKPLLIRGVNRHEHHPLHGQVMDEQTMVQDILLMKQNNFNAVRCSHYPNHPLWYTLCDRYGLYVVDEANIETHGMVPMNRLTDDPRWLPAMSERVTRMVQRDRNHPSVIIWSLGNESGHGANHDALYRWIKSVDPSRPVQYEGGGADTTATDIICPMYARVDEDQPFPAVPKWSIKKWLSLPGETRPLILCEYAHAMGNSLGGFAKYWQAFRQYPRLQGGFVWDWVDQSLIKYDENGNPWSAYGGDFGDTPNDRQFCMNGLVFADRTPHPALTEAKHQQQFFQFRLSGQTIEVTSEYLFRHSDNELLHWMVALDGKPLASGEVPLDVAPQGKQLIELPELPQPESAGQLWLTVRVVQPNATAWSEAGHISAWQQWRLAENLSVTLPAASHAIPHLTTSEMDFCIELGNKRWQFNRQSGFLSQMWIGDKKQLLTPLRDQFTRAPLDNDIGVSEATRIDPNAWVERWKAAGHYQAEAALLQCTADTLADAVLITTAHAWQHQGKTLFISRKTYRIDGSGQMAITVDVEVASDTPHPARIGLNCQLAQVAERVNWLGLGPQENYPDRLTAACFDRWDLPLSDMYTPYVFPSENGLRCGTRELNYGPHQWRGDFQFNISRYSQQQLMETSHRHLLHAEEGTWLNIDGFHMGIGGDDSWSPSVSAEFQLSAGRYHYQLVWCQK

[3] = target: Type-1 angiotensin II receptor (Homo sapiens, UniProt P30556); experiment: AT1 receptor antagonists, dose response, selectivity assay for APJ receptor antagonist project, cell-based, uHTS hits (AID 463214); assay type: functional;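 note: antagonist potency against angiotensin II stimulated AT1 response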
Chain of Type-1 angiotensin II receptor (P30556 whole entry): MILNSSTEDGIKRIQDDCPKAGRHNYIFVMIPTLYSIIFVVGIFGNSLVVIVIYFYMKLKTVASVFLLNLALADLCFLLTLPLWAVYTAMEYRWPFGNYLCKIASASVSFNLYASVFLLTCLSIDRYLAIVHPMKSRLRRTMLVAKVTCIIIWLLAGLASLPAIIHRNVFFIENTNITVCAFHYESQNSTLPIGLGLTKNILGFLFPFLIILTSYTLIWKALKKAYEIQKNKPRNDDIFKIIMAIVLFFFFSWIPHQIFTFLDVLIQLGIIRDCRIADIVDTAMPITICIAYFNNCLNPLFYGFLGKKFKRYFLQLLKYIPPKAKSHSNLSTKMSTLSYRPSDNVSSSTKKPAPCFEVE

[4] = target: T2, Corticotropin-releasing factor receptor 2/Corticotropin-releasing factor-binding protein (Homo sapiens, UniProt P24387+Q13324); experiment: Dose Response confirmation of uHTS hits for small molecule antagonists of the CRF-binding protein and CRF-R2 receptor complex.; assay type: functional; settings: read-out: IC50_Mean
T2 sequence (Q13324 whole entry): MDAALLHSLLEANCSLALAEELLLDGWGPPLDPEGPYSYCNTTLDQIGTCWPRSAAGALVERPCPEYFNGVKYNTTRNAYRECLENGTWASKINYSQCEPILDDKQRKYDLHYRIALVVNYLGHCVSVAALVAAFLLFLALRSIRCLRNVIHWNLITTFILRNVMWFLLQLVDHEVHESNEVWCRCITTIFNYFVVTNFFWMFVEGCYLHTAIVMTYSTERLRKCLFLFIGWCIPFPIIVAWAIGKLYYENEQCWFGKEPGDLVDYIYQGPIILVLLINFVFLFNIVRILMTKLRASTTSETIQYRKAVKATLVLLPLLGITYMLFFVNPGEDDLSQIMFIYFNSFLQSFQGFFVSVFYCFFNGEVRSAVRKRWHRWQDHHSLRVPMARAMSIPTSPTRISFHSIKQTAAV
T2 sequence (P24387 whole entry): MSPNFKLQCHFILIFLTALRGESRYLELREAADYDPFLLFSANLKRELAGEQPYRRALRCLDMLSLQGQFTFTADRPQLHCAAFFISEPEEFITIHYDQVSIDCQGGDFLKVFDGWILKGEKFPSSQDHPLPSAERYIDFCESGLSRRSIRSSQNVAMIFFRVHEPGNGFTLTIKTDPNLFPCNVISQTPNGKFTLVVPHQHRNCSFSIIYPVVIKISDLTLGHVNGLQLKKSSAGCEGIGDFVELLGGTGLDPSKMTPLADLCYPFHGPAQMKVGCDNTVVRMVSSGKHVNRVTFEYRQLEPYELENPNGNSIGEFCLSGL

[5] = target: T2, Corticotropin-releasing factor receptor 2/Corticotropin-releasing factor-binding protein; experiment: activators of CRF receptor 2 with binding protein – uHTS hits, confirmation (AID 602473); assay type: functional; settings: read-out: EC50_Mean
[6] = A549 cell cytotoxicity, dose response, cytotoxicity control, plate reader, cherry-pick, antagonist series (AID 743412); assay type: functional, cell-based
Leucine aminopeptidase = target: T3, Leucine aminopeptidase (Plasmodium falciparum 3D7, UniProt Q8IL11); experiment: P. falciparum M17LAP inhibitors, primary screen, biochemical, fluorogenic H-Leu-NHMec substrate, 1536-well (AID 1619); assay type: functional
T3 sequence (Q8IL11 whole entry): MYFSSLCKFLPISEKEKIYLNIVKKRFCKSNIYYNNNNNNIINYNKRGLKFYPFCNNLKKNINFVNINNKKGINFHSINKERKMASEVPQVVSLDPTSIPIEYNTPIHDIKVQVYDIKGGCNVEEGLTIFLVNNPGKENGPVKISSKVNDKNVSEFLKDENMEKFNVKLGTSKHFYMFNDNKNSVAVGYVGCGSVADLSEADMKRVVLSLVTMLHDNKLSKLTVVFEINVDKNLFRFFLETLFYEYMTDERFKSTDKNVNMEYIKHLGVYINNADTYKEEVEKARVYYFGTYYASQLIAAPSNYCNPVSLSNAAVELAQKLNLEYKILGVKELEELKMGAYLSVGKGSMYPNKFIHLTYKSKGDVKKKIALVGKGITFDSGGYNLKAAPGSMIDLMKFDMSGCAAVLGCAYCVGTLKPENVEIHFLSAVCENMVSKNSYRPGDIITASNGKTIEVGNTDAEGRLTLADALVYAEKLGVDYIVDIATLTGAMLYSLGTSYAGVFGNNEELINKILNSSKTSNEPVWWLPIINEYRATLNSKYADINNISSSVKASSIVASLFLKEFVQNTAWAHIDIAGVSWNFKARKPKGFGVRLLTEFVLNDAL

[7] = target: T4, Microphthalmia-associated transcription factor (Homo sapiens, UniProt O75030); experiment: TRPM1 promoter luciferase signal decrease, dose response, MITF inhibitor project, cell-based, SK-MEL-5, cherry-picked, set 3 (AID 493073); assay type: functional
T4 sequence (O75030 whole entry): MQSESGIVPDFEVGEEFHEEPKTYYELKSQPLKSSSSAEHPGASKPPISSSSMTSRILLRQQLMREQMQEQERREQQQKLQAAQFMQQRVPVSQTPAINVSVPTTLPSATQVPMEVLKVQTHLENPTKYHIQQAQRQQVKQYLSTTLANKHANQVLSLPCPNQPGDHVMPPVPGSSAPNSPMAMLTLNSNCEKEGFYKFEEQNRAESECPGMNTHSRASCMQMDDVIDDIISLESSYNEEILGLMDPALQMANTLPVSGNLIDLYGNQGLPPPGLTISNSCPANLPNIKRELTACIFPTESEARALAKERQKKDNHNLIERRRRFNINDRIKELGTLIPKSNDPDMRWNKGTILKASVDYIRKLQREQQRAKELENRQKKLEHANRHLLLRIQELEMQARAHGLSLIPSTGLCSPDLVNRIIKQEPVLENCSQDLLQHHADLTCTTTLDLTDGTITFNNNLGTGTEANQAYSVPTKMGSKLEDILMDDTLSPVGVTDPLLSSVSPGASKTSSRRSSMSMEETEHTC

[8] = cytotoxicity in HEK-293T NF-kB-Luc cells, dose response, cytotoxicity control for B/T-cell NF-kB inhibitor project, cell-based, uHTS hits (AID 489019); assay type: functional;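 note: IC50 reflects cytotoxicity as loss of cell viability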
[9] = off-target signal loss in HeLa-CEM21 co-culture – HeLa F-luc CTL cells, cherry-picked, counter-screen for HIV-1 Env fusion inhibitor project, dose response (AID 652040); assay type: functional, cell-based;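 note: potency for signal decrease marking cytotoxic or nonspecific inhibition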
[10] = LGR2 antagonists, dose response, cell-based, HEK293, CRE-luciferase reporter, cherry pick, set 2 (AID 743343); assay type: functional;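 note: transfected cells were stimulated with diluted bursicon conditioned medium after compound addition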
[11] = inhibitors of HIV Env-driven cell fusion, dose response, cherry-pick (AID 652057); assay type: functional, cell-based
Procathepsin L = Procathepsin L (Homo sapiens, UniProt P07711); experiment: cathepsin L inhibitors, dose response, counter-screen for M1/M17 aminopeptidase inhibitor project, biochemical, QFRET, 1536-well (AID 2214)
Chain of Procathepsin L (P07711 whole entry): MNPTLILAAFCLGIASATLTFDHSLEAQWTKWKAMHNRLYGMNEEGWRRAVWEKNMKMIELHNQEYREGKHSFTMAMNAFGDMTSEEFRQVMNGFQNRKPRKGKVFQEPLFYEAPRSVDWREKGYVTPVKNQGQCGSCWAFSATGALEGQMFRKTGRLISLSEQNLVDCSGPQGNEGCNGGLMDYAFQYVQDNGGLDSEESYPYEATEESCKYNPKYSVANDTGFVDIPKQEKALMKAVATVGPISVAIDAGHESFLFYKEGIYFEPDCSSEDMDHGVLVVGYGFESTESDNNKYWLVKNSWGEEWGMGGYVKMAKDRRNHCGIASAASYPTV

Aspartyl aminopeptidase = target: T5, Aspartyl aminopeptidase (Plasmodium falciparum 3D7, UniProt Q8I2J3); experiment: Counterscreen for inhibitors of M1 and M17 aminopeptidases: QFRET-based biochemical high throughput dose response assay for inhibitors of the Plasmodium falciparum M18 Aspartyl Aminopeptidase (PFM18AAP). [Related PubChem assays: 1619 (Screening assay (M17LAP inhibitors).), 1445 (Screening assay (M1AAP inhibitors).)]
T5 sequence (Q8I2J3 whole entry): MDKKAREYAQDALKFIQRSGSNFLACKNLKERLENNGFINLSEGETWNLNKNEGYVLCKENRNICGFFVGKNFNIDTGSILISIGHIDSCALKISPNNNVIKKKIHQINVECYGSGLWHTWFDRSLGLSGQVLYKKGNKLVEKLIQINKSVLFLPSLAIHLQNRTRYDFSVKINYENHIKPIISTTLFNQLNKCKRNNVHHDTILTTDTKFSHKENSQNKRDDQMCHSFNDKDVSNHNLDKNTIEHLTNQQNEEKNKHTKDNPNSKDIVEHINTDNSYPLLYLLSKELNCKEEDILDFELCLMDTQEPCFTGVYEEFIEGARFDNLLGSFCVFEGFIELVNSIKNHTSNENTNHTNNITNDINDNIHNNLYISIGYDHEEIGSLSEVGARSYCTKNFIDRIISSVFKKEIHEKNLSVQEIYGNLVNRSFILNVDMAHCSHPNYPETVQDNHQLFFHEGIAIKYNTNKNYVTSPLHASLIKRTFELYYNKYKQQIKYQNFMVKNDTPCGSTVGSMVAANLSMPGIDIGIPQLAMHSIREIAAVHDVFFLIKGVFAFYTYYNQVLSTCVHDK

[12] = inhibitors of clade B AD8 Env fusion, dose response, cell-based, cherry-pick (AID 652062); assay type: functional;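 note: luciferase signal from cell-cell fusion driven by HIV-1 clade B AD8 Env; potency is for inhibitors of fusion seen as a drop in luminescence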
Jurkat [13] = experiment: antigen receptor-induced NF-kB inhibitors, dose response, Jurkat, luciferase reporter, luminescence, B- and T-cell (AID 489004); assay type: functional, cell-based; settings: Homo sapiens;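 note: NF-kB luciferase reporter Jurkat cells stimulated with PMA plus ionomycin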
[14] = MC4R antagonists, dose response, counter-screen for LGR2 antagonist project, cell-based, plate reader, cherry pick (AID 743444); assay type: functional;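 note: transfected HEK 293 cells stimulated with alpha-MSH peptide; potency of inhibitors of the alpha-MSH evoked signal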
HEK293 [15] = experiment: cytotoxicity in HEK293T NF-kB-Luc cells, SAR follow-up, cytotoxicity control for NF-kB activator project, cell-based, resazurin fluorescence (AID 493251); assay type: functional; settings: Homo sapiens
HEK293 [16] = experiment: SAR Analysis of small molecule inhibitors of T-cell specific antigen receptor-induced NF-kB activation in a HEK-293T cell line using a luminescence assay - Set 2. [Related pubchem assays (depositor defined):AID435003, AID435012, AID489026]; assay type: functional, cell-based; settings: Homo sapiens
Jurkat [17] = experiment: SAR Analysis of small molecule inhibitors of T-cell specific antigen receptor-induced NF-kB activation in a Jurkat cell line using a luminescence assay - Set 2. [Related pubchem assays (depositor defined):AID435003, AID435012, AID465]; assay type: functional, cell-based; settings: Homo sapiens

With `Cc1nn(-c2ccccc2)c(Cl)c1C(=O)N1CCN(C)CC1` the IC50 [1] was > 67.5 µM (inactive) and the IC50 (HEK293 [2]) was > 67.5 µM (inactive).
In the case of `Cc1ccc(NC(=O)c2ccccc2F)c(NC(=O)c2ccccc2F)c1`, the IC50 [1] is reported as > 67.5 µM (inactive) and the IC50 (HEK293 [2]) is reported as > 67.5 µM (inactive).
For `CC(C(=O)OCC(=O)c1cccc([N+](=O)[O-])c1)N1C(=O)C2C3CCC(C3)C2C1=O` (stereo not drawn), the EC50 (Beta-galactosidase) was > 40 µM (inactive) and the IC50 [3] was 24.4 µM (not active).
In the case of `ON1C(c2ccc(Cl)cc2Cl)N(O)[C@H]2CCCC[C@H]21` (stereo partly drawn), the IC50 [4] is reported as > 47.1 µM (inactive), the EC50 (Beta-galactosidase) is reported as > 40 µM (inactive) and the EC50 [5] is reported as > 53 µM (inactive). For the same compound, the IC50 [3] was 17.7 µM (active).
For `O=C(Nc1ccc(Cl)cc1)Nc1cccc(C(=O)O)c1`, the AC50 [6] was > 52 µM (inactive), the IC50 (Leucine aminopeptidase) was < 1 µM (active) and the AC50 [7] was 3.79 µM (active). The IC50 [8] was > 80 µM (inactive), the AC50 [9] was 2.95 µM (active) and the AC50 [10] was 2.93 µM (active). The AC50 [11] was 2.22 µM (active), the IC50 (Procathepsin L) was > 59.6 µM (not active) and the IC50 (Aspartyl aminopeptidase) was > 73.5 µM (not active). The AC50 [12] was 2.51 µM (active), the IC50 (Jurkat [13]) was 3.35 µM (active) and the AC50 [14] was 1.88 µM (active).
For `CCC(=O)NC(c1ccc(N(C)C)cc1)c1ccc2cccnc2c1O` (stereo not drawn), the IC50 (HEK293 [15]) was 18.4 µM (active), the IC50 (HEK293 [16]) was 7 µM (active) and the IC50 (Jurkat [17]) was 2.67 µM (active).
With `COc1ccc(C(NC(=O)CC(C)C)c2ccc3cccnc3c2O)cc1OC` (stereo not drawn) the IC50 (HEK293 [15]) was 20.1 µM (inactive), the IC50 (HEK293 [16]) was 6.6 µM (active) and the IC50 (Jurkat [17]) was 5.48 µM (active).
